In ChEMBL document CHEMBL1681726, “Discovery of orally available tetrahydroquinoline-based glucocorticoid receptor agonists” (Bioorg Med Chem Lett, 2011):

How the values were obtained:
Progesterone receptor = biological target: T1, Progesterone receptor (Homo sapiens, UniProt P06401); test: Binding affinity to PR
T1 sequence (P06401 whole entry): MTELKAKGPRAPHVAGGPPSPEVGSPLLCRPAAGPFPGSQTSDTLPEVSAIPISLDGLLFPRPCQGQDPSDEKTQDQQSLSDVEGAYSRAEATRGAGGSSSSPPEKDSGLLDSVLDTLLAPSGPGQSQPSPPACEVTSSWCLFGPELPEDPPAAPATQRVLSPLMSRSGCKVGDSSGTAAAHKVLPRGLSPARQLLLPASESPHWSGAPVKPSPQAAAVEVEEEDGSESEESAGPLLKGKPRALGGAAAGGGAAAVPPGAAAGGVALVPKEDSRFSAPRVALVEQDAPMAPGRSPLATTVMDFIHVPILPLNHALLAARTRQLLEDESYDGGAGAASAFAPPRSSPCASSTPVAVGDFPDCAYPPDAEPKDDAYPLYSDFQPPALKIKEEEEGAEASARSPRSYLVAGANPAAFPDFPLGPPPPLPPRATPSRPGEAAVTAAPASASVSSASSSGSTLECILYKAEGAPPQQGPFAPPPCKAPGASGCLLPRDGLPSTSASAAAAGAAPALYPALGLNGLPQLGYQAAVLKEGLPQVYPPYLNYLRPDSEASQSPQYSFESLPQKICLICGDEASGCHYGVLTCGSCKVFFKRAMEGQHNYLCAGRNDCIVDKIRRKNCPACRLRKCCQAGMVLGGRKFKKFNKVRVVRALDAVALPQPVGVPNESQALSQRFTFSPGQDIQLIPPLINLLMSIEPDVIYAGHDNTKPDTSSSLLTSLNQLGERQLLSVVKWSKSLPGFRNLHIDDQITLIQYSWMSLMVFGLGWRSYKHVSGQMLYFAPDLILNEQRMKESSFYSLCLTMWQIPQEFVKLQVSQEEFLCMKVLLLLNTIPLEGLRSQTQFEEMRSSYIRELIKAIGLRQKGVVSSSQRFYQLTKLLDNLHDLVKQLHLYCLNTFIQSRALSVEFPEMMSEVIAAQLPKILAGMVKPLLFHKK

Glucocorticoid receptor = biological target: T2, Glucocorticoid receptor (Homo sapiens, UniProt P04150); test: Displacement of radiolabeled Dexamethasone from GR
T2 sequence (P04150 whole entry): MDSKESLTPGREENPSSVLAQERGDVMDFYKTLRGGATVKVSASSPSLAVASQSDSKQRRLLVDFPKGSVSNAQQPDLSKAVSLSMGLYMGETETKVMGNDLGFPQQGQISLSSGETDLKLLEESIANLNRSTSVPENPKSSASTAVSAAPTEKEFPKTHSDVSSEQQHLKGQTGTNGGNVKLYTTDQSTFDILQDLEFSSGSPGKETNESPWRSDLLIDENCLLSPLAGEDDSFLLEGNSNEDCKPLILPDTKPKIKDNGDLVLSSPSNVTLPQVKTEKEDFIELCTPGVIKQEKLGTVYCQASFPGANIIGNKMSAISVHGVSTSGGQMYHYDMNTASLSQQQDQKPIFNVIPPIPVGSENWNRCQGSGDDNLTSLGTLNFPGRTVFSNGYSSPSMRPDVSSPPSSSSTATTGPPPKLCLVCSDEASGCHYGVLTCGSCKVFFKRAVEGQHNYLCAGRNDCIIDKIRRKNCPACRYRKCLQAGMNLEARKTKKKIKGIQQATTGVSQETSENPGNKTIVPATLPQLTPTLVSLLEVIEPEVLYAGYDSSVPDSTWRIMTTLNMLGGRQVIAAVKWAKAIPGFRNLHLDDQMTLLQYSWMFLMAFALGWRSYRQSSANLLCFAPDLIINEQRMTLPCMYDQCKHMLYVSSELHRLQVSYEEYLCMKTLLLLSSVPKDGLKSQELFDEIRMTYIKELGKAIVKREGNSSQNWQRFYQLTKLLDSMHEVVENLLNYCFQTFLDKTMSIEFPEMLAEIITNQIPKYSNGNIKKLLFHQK

[1] = AUC in Sprague-Dawley rat at 30 mg/kg, po; format: ADME, organism-based; parameters: dose 30 mg/kg, route oral; conditions: plasma
Mus musculus = test: Antiinflammatory activity in po dosed mouse assessed as carrageenan-induced hind paw edema measured after 3 hrs post dose; format: functional
[2] = Metabolic stability in CD-1 […] liver microsomes by HPLC-MS/MS; format: ADME, Microsome; conditions: CD-1, liver microsomes

## C[C@H]1c2c(cc(F)c(-c3cccc4cc[nH]c34)c2F)NC(C)(C)[C@@H]1O (racemic)
Progesterone receptor
  Ki: 2100 nM
Glucocorticoid receptor
  Ki: 2.5 nM
[1]
  AUC: 35000 ng·h/mL
Mus musculus
  ED50: 6.6 mg/kg
[2]
  half-life: 30 min
